Source: patent US10464926B2, “Heterobicyclic compounds and their use for the treatment of tuberculosis” (OTSUKA PHARMACEUTICAL CO., LTD., priority 2014, dated 2019)

Columns and labels:
[1] = tested on: Mycobacterium tuberculosis (M. tuberculosis Kurono); assay: Antibacterial test (agar dilution method), M. tuberculosis Kurono; type: cell-based; details: Mycobacterium tuberculosis, 336 h; 7H11 agar medium, about 10^6 CFU/mL, 37° C. for 14 days; read-out: Minimum inhibitory concentration (MIC) kurono

Row | melting point | Compound | MIC [1] [µg/mL]
1 |  | CC(=O)O[C@@H]1CN(c2ccc(Cl)cc2F)CC[C@@]1(O)COc1ccc(F)c2c1CCC(=O)N2 [Example 454, (3R,4R)-1-(4-Chloro-2-fluorophenyl)-4-{[(8-fluoro-2-oxo-1,2,3,4-tetrahydroquinolin-5-yl)oxy]methyl}-4-hydroxypiperidin-3-yl acetate] | < 0.39
2 |  | O=C1CCc2c(CCC3(O)CCN(c4c(F)cc(Cl)cc4F)CC3)ccc(F)c2N1 [Example 463, 5-{2-[1-(4-Chloro-2,6-difluorophenyl)-4-hydroxypiperidin-4-yl]ethyl}-8-fluoro-3,4-dihydroquinolin-2(1H)-one] | < 0.39
3 |  | O=C1CCc2c(OCC3(F)CCN(c4ncc(Cl)cc4Cl)CC3)ccc(F)c2N1 [Example 404, 5-{[1-(3,5-Dichloropyridin-2-yl)-4-fluoropiperidin-4-yl]methoxy}-8-fluoro-3,4-dihydroquinolin-2(1H)-one] | < 0.39
4 |  | O=C1CCc2c(OC[C@@]3(O)CCN(c4ncc(Cl)cc4Cl)C[C@@H]3O)ccc(F)c2N1 [Example 252, 5-{[(3S,4S)-1-(3,5-Dichloropyridin-2-yl)-3,4-dihydroxypiperidin-4-yl]methoxy}-8-fluoro-3,4-dihydroquinolin-2(1H)-one] | < 0.39
5 | 170.6 to 170.8 °C | COCCOc1cc(N2CCC(O)(COc3ccc(F)c4c3CCC(=O)N4)CC2)c(F)cc1Cl | 
6 | 239.3 to 239.6 °C | O=C1CCc2c(OCC3(O)CCN(c4c(F)cc(F)cc4Cl)CC3)ccc(F)c2N1 | 
7 | 174.1 to 174.5 °C | CCOc1cc(F)c(N2CCC(O)(COc3ccc(F)c4c3CCC(=O)N4)CC2)cc1F | 
8 | 221.5 to 222 °C | O=C1CCc2c(OCC3(O)[C@H](O)CN(c4c(F)cc(Cl)cc4F)C[C@H]3O)ccc(F)c2N1 (relative stereo) | 
9 | 223.1 to 223.2 °C | O=C1CCc2c(OCC3(O)CCN(c4ccc(Br)cc4F)CC3)ccc(Cl)c2N1 | 
10 | 255 to 256 °C | O=c1ccc2c(OCC3(O)CCN(c4ccc(Cl)cc4F)CC3)ccc(F)c2[nH]1 | 
11 | 178.6 to 178.7 °C | O=C1CCc2c(OCC3(O)CCN(c4c(F)cc(OCC(F)(F)F)cc4F)CC3)ccc(Cl)c2N1 | 
12 | 161.6 to 161.9 °C | O=C1CCc2c(OC[C@]3(O)CCN(c4ccc(OC(F)(F)F)cc4F)C[C@H]3O)ccc(F)c2N1 | 
13 | 176 to 178 °C | CCOc1cc(F)c(N2CC[C@@](O)(COc3ccc(F)c4c3CCC(=O)N4)[C@H](O)C2)c(F)c1 [Example 317] | 
14 | 201 to 202 °C | O=C1CCc2c(OC[C@]3(O)CCN(c4c(F)cc(OCC(F)(F)F)cc4F)C[C@H]3O)ccc(F)c2N1 (relative stereo) [Example 310] | 
15 | 143.6 to 143.7 °C | O=C1CCc2c(OCC3(O)CCN(c4c(F)cc(OC(F)F)cc4F)CC3)ccc(Cl)c2N1 | 
16 | 238.8 to 239.1 °C | O=C1CCc2c(OCC3(O)CCN(c4c(F)cc(Cl)cc4Cl)CC3)ccc(F)c2N1 | 
17 | 254.8 to 254.9 °C | O=C1CCc2c(OCC3(O)CCN(c4cc(OC(F)(F)F)c(Cl)cc4Cl)CC3)ccc(F)c2N1 | 
18 | 211.3 to 211.5 °C | O=C1CCc2c(OCC3(O)CCN(c4ccc(Cl)cc4C(F)(F)F)CC3)ccc(F)c2N1 | 
19 | 175.2 to 176.1 °C | O=C1CCc2c(OC[C@]3(O)CCN(c4ccc(F)cc4F)C[C@H]3O)ccc(F)c2N1 | 
20 | 215.7 to 216 °C | O=C1CCc2c(OCC3(O)CCN(c4ccc5occc5c4)CC3)ccc(F)c2N1 | 
21 | 222 to 223 °C | C[C@H]1CN(c2ncc(Cl)cc2Cl)CC[C@@]1(O)COc1ccc(F)c2c1CCC(=O)N2 (relative stereo) | 
22 | 199 to 201 °C | O=C1CCc2c(OC[C@]3(O)CCN(c4c(F)cc(Cl)cc4F)C[C@H]3O)cc(F)c(F)c2N1 | 
23 | 208.9 to 209.3 °C | CCOc1c(F)c(F)c(N2CCC(O)(COc3ccc(F)c4c3CCC(=O)N4)CC2)c(F)c1F | 

Row | melting point | Compound | MIC [1] [µg/mL]
24 | 226 to 227 °C | O=C1CCc2c(NCC3(O)CCN(c4ccc(Cl)cc4Cl)CC3)ccc(F)c2N1 | 
25 | 178.8 to 178.9 °C | CCc1cc(N2CCC(O)(COc3ccc(Cl)c4c3CCC(=O)N4)CC2)c(F)cc1F | 
26 | 190 to 191 °C | O=C1CCc2c(OC[C@]3(O)CCN(c4nc5ccccc5o4)C[C@H]3O)ccc(F)c2N1 | 
27 | 198.6 to 198.8 °C | O=C1CCc2c(OC[C@]3(O)CCN(c4ccc(Cl)cc4F)C[C@@H]3O)ccc(F)c2N1 | 
28 | 233 °C | O=C1CCc2c(cccc2OC[C@]2(O)CCN(c3c(F)cc(Cl)cc3F)C[C@H]2O)N1 (relative stereo) [Example 349] | 
29 | 223 to 223.3 °C | O=C1CCc2c(OCC3(O)CCN(c4cc(OCCF)c(Cl)cc4F)CC3)ccc(Cl)c2N1 | 
30 | 198.8 to 199.1 °C | CCOc1ccc(N2CCC(O)(COc3ccc(F)c4c3CCC(=O)N4)CC2)cc1 | 
31 | 197.9 to 199.6 °C | Cc1ccc(N2CCC(O)(COc3ccc(F)c4c3CCC(=O)N4)CC2)nc1C | 
32 | 200.4 to 200.5 °C | O=C1CCc2c(OCC3(O)CCN(c4ccsc4)CC3)ccc(F)c2N1 | 
33 | 216 to 216.3 °C | O=C1CCc2c(OC[C@]3(O)CCN(c4cc(Cl)c(F)cc4Cl)C[C@H]3O)ccc(F)c2N1 | 
34 | 156 to 156.1 °C | O=C1CCc2c(OCC3(O)CCN(c4cc(CCOc5ccc(F)cc5)c(Cl)cc4F)CC3)ccc(F)c2N1 | 
35 | 200.7 to 201.4 °C | CCCOc1cc(N2CCC(O)(COc3ccc(F)c4c3CCC(=O)N4)CC2)c(F)cc1Cl | 
36 | 201 to 204 °C | O=C1CCc2c(OC[C@]3(O)CCN(c4c(F)cc(Cl)cc4F)C[C@H]3O)cc(F)c(Cl)c2N1 (relative stereo) [Example 277] | 
37 | 195 to 195.2 °C | Cc1cc(N2CCC(O)(COc3ccc(Cl)c4c3CCC(=O)N4)CC2)c(F)cc1F | 
38 | 196 to 197.1 °C | O=C1CCc2c(OC[C@]3(O)CCN(c4ccc(OC(F)(F)F)cc4)C[C@H]3O)ccc(F)c2N1 | 
39 | 157.4 to 157.5 °C | CCSc1cc(F)c(N2CCC(O)(COc3ccc(Cl)c4c3CCC(=O)N4)CC2)c(F)c1 | 
40 | 232 °C | O=c1ccc2c(OC[C@]3(O)CCN(c4c(F)cc(Cl)cc4F)C[C@H]3O)ccc(F)c2[nH]1 (relative stereo) [Example 371] | 
41 | 206 to 207 °C | N#C[C@H]1CN(c2ncc(Cl)cc2Cl)CC[C@@]1(O)COc1ccc(F)c2c1CCC(=O)N2 (relative stereo) | 
42 | 237.8 to 238.2 °C | CC(=O)NC1(COc2ccc(F)c3c2CCC(=O)N3)CCN(c2ncc(F)cc2C#N)CC1 | 
43 | 174.2 to 174.3 °C | O=C1CCc2c(OCC3(O)CCN(c4ccc(OC(F)(F)F)cc4F)CC3)ccc(F)c2N1 | 
44 | 199 to 199.7 °C | O=C1CCc2c(OC[C@]3(O)CCN(c4cc(F)c(Cl)cc4F)C[C@H]3O)ccc(F)c2N1 | 
45 | 190.3 to 190.4 °C | O=C1CCc2c(OCC3(O)CCN(c4cc(F)c(Cl)cc4F)CC3)ccc(Cl)c2N1 | 
46 | 197.5 to 197.6 °C | CCCc1ccc(N2CCC(O)(COc3ccc(F)c4c3CCC(=O)N4)CC2)c(Cl)c1 | 

Row | melting point | Compound | MIC [1] [µg/mL]
47 | 215 to 217 °C | O=C1CCc2c(OC[C@@]3(O)CCN(c4c(F)cc(Cl)cc4F)C[C@@H]3O)cc(F)c(F)c2N1 (relative stereo) | 
48 | 174 °C | COCCOc1ccc(N2CCC(O)(COc3ccc(F)c4c3CCC(=O)N4)CC2)c(F)c1 | 
49 | 225.3 to 225.7 °C | CC(C)c1cc(N2CCC(O)(COc3ccc(F)c4c3CCC(=O)N4)CC2)c(F)cc1Cl | 
50 | 200.6 to 201 °C | O=C1CCc2c(OCC3(O)CCN(c4cc(OCC(F)(F)F)c(Cl)cc4F)CC3)ccc(F)c2N1 | 
51 | 200.5 to 200.8 °C | O=C1CCc2c(OCC3(O)CCN(c4c(F)cc(Br)cc4F)CC3)cc(F)c(Cl)c2N1 | 
52 | 175.7 to 177 °C | O=C1CCc2c(OC[C@]3(O)CCN(c4ccc(F)cc4Cl)C[C@H]3O)cc(F)c(Cl)c2N1 | 
53 | 228.1 to 229 °C | CCOc1cc(N2CCC(O)(COc3ccc(Cl)c4c3CCC(=O)N4)CC2)c(F)cc1Cl | 
54 | 200.7 °C | O=C1CCc2c(OCC3(O)CCN(c4ccc(OC(F)(F)F)cc4)CC3)ccc(F)c2N1 | 
55 | 197 to 198 °C | O=C1CCc2c(OC[C@]3(O)CCN(c4c(F)cc(Br)cc4F)C[C@H]3O)ccc(F)c2N1 [Example 302] | 
56 | 204.8 to 205 °C | O=C1CCc2c(OCC3(O)CCN(c4ccc(Br)cc4F)CC3)ccc(F)c2N1 | 
57 | 188 to 189 °C | O=C1CCc2c(OCC3(O)CCN(c4ccc(Cl)cc4[N+](=O)[O-])CC3)ccc(F)c2N1 | 
58 | 207.4 to 210.3 °C | O=C1CCc2c(OCC3(O)CCN(c4ccc(OCc5ccc(C(F)(F)F)cc5)cc4F)CC3)ccc(F)c2N1 | 
59 | 194.9 to 195.1 °C | O=C1CCc2c(OCC3(O)CCN(c4ccc(OCc5ccc(C(F)(F)F)cn5)cc4F)CC3)ccc(F)c2N1 | 
60 | 232.4 to 232.5 °C | COc1cc(N2CCC(O)(COc3ccc(F)c4c3CCC(=O)N4)CC2)c(F)cc1Cl | 
61 | 163 to 165 °C | CC(=O)O[C@@H]1CN(c2c(F)cc(Cl)cc2F)CC[C@@]1(O)COc1ccc(F)c2c1CCC(=O)N2 | 
62 | 239.4 to 239.8 °C | O=C1CCc2c(OCC3(O)CCN(c4c(Cl)cc(Cl)cc4Cl)CC3)ccc(F)c2N1 | 
63 | 226.6 to 226.7 °C | O=C1CCc2c(OCC3(O)CCN(c4cc5c(cc4F)OC(F)(F)O5)CC3)ccc(F)c2N1 | 
64 | 185.1 to 185.9 °C | CCCOc1ccc(N2CCC(O)(COc3ccc(F)c4c3CCC(=O)N4)CC2)c(F)c1 | 
65 | 189.8 to 189.9 °C | O=C1CCc2c(OCC3(O)CCN(c4c(F)cc(OCC(F)(F)F)cc4F)CC3)ccc(F)c2N1 | 
66 | 225 to 226 °C | O=C1CCc2c(NCC3(O)CCN(c4ccc(Cl)cc4F)CC3)ccc(F)c2N1 | 
67 | 131.1 to 131.3 °C | CC(C)c1cccc(N2CCC(O)(COc3ccc(F)c4c3CCC(=O)N4)CC2)c1 | 
68 | 194 °C | O=C1CCc2c(OC[C@]3(O)CCN(c4ccc(Br)cc4F)C[C@H]3O)cc(F)c(Cl)c2N1 (relative stereo) | 

Row | Compound | melting point | MIC [1] [µg/mL]
69 | O=C1CCc2c(OC[C@@]3(O)CCN(c4ncc(Cl)cc4Cl)C[C@@H]3O)ccc(F)c2N1 (relative stereo) | 202.6 to 204.8 °C | 
70 | O=c1ccc2c(OC[C@]3(O)CCN(c4ccc(Br)cc4F)C[C@H]3O)ccc(F)c2[nH]1 | 224.5 °C (dec.) | 
